In patent publication US12668803B2, “Glypican-3-specific modified aptamer and use thereof” (APTAMER SCIENCES INC., priority 2019, dated 2026):

What was measured:
Format in all cases: cell-based
[1] = tested on: Huh 7 cells; assay: Cell binding analysis of Cy5-labeled aptamers (FACS); settings: three vs five gemcitabines bound, method of Example 2-1, FIG. 19
Method: (§1) The 12-10 aptamer and 5 aptamer libraries prepared by truncating the 12-10 aptamer at various lengths [12-10 (40-mer), 12-12 (35-mer), 12-11 (29-mer), 12-13 (24-mer), 12-14 (23-mer), 12-15 (18-mer)] were subjected to cell binding analysis. Each aptamer sequence was labeled with Cy5 at the 5′ end thereof according to the method of Example 1-1. Huh 7 cells (ATCC, Rockville, MD, USA) were seeded at a density of 2×10^6/mL in a 100 mm^2 culture plate, and cultured using a DMEM medium (Gibco, Grand Island, NY, USA) containing 10% FBS (Gibco, Grand Island, NY, USA) and 1% antibiotics (penicillin/streptomycin) under conditions of 5% CO2 and 37° C. 5 μM of the aptamer stock was mixed with 5×SB18 buffer to prepare the aptamer at a concentration of 4 μM, and heated at 95° C. for 5 min, and then cooled at room temperature for 15 min or more. 4 μM of the aptamer was diluted with KRPH buffer (20 mM HEPES, 5 mM KH2PO4, 1 mM MgSO4, 1 mM CaCl2, 136 mM NaCl, 4.7 mM KCl, pH 7.4) at a concentration of 25 nM. The culture medium was removed from the cultured cells, and 4 mL of phosphate-buffered saline (PBS) was added thereto, followed by washing, and then 4 mL of PBS was removed. 4 mL of cold PBS or warm PBS was added, and cells were scraped using a scraper, and collected in tubes, followed by pipetting. The cells were divided and added to fluorescence-activated cell sorting (FAC) tubes according to the number of samples, followed by centrifugation at 4° C. and 2000 rpm for 4 min. After removing the supernatant, each 500 μL of 25 nM aptamer and control (31-08 (40-mer) aptamer) were added to 15 mL of KRPH buffer, followed by pipetting. The tube was covered with foil to block the light, followed by incubation at 4° C. for 30 min. After incubation, centrifugation was performed at 4° C. and 2000 rpm for 4 min, and the supernatant was removed. 2 mL of cold 1×PBS was added, washed, centrifuged at 4° C. and 2000 rpm for 4 min, and the supernatant was removed. This process was repeated three times. […] Cy5 was measured at […]. […]

[2] = tested on: HepG2; assay: Cellular internalization of gemcitabine-bound chemically optimized aptamers; settings: analysis in HepG2 and A431 cells, FIGS. 20 to 22
Method: [The source words this procedure for another cell line and reports this cell line under the same test.] 5 aptamer libraries prepared by truncating the 12-10 aptamer at various lengths [12-12 (35-mer), 12-11 (29-mer), 12-13 (24-mer), 12-14 (23-mer), and 12-15 (18-mer)] were subjected to cellular internalization analysis. In detail, a 6-well plate was prepared, and a round cover glass was placed in the 6-well plate. Huh-7 cells were cultured in the 6-well plate according to the method of Example 1-3. 5 μM of the aptamer stock was mixed with 5×SB18 buffer to prepare the aptamer at a concentration of 4 μM, and heated at 95° C. for 5 min, and then cooled at room temperature for 15 min or more. The next day, the medium was removed from the cultured cells, and a serum-free medium was added thereto, and cultured under conditions of 37° C. and 5% CO2 for 1 hr. The serum-free medium was removed, and then the cells were washed with 2 mL of 1×PBS. KRPH buffer was added, and cultured under conditions of 37° C. and 5% CO2 for 1 hr. 4 μM aptamer was diluted to 25 nM, and then cultured under conditions of 37° C. and 5% CO2 for 1 hr or 4 hr. Washing was repeated three times with 2 mL of 1×PBS. Washing was performed in a shaker at room temperature for 10 min while blocking the light. Thereafter, the cells were fixed by treatment with 4% paraformaldehyde at 4° C. for 10 min. Washing was repeated three times with 2 mL of 1×PBS. […]

[3] = tested on: GPC3-expressing hepatoma cells; assay: Cell-killing effect (CCK-8) of gemcitabine-bound combi aptamers; settings: FIG. 23 and FIG. 24
Method: In detail, Huh-7 cells (ATCC, Rockville, MD, USA) were seeded in a 96-well plate at a density of 1×10^4/mL, and cultured using a DMEM (Gibco, Grand Island, NY, USA) medium containing 10% FBS (Gibco, Grand Island, NY, USA) and 1% antibiotics (penicillin/streptomycin) under conditions of 5% CO2 and 37° C. Next day, the aptamer stock (100 μM) was mixed with 5×SB18 buffer to prepare the stock at a concentration of 80 μM, and heated at 95° C. for 5 min, and then cooled at room temperature for 15 min or more. The medium was removed from the cultured cells, and 100 μL of a serum-free medium was added thereto, and cultured under conditions of 37° C. and 5% CO2 for 1 hr. The serum-free medium was removed, and then the cells were washed with 100 μL of 1×PBS. 100 μL of KRPH buffer was added, and cultured under conditions of 37° C. and 5% CO2 for 1 hr. The aptamer was diluted with KRPH buffer to 2-fold of the desired concentration, and added to a 96-well plate at 1× concentration, and cultured under conditions of 37° C. and 5% CO2 for 4 hr. After treatment with the aptamer, the KRPH buffer was removed, and then 100 μL of culture medium was added and cultured under conditions of 37° C. and 5% CO2 for […]. 6 days later, 10 μL of a kit solution of CCK-8 (Cell Counting Kit-8) was added to each well, and then cultured under conditions of 37° C. and 5% CO2 for 3 hr. Cell death levels were examined at […] using a microplate reader.

[4] = tested on: hepatoma cells (Hep3B, HepG2); assay: Cell cycle analysis (propidium iodide, FACS); settings: 4 hr treatment, FIGS. 25 and 26
Method: (§2) To analyze the effects of combi 4 and combi 5 bound with three or five gemcitabines on the cell cycle of hepatoma cells, cell cycle analysis was performed. In detail, Hep3B, HepG2, and A431 cells were seeded in a 6-well plate at a density of 1×10^6/ml, and cultured using a DMEM medium containing 10% FBS and 1% antibiotics (penicillin/streptomycin) under conditions of 5% CO2 and 37° C., respectively. Next day, 100 μM of the modified aptamer stock was mixed with 5×SB18 buffer to prepare the aptamer at a concentration of 80 μM, and heated at 95° C. for 5 min, and then cooled at room temperature for 15 min or more. The medium was removed from the cultured cells, and replaced by a serum-free medium, and cultured under conditions of 37° C. and 5% CO2 for 1 hr. The serum-free medium was removed, and then the cells were washed with 2 ml of 1×PBS. 2 ml of KRPH buffer was added, and cultured under conditions of 37° C. and 5% CO2 for 1 hr. The aptamer was added, and cultured under conditions of 37° C. and 5% CO2 for 4 hr. The KRPH buffer was removed, and 2 ml of 1×PBS was added thereto to perform washing, and then PBS was removed. 2 ml of 1×PBS was added, and cells were scraped using a scraper, and collected in FACs tubes, followed by centrifugation at 4° C. and 2000 rpm for 4 minutes. 1/500-fold diluted RNAase A and propidium iodide diluted with PBS at a concentration of 50 μg/ml were added to the FACs tubes at a volume of 500 μL, followed by pipetting. Incubation was performed at room temperature for 30 min while blocking the light, and then cell cycle was measured.

[5] = tested on: squamous cell carcinoma cells (A431); assay: Cell cycle analysis (propidium iodide, FACS); settings: 4 hr treatment, FIG. 27
Method: as §2

[6] = tested on: HepG2 cell; assay: Cell binding analysis of chemically optimized aptamers; settings: combi 1 to combi 5, FIG. 16
Method: [The source words this procedure for another cell line and reports this cell line under the same test.] as §1, with “4 mL of cold PBS or warm PBS was added, and cells were scraped using a scraper, and collected in tubes, followed by pipetting.” left out, “min.” for “min. After removing the supernatant, each 500 μL of 25 nM aptamer and control (31-08 (40-mer) aptamer) were added to 15 mL of KRPH buffer, followed by pipetting. The tube was covered with foil to block the light, followed by incubation at 4° C. for 30 min. After incubation, centrifugation was performed at 4° C. and 2000 rpm for 4 min, and the supernatant was removed. 2 mL of cold 1×PBS was added, washed, centrifuged at 4° C. and 2000 rpm for 4 min, and the supernatant was removed. This process was repeated three times.”

[7] = tested on: Hep3B; assay: Cellular internalization of chemically optimized aptamers (FIG. 17A); settings: combi 1 to combi 5, FIG. 17A

Substance | cell binding ability [1] | cellular internalization [2] | concentration from which a cell-killing effect is shown [3] [nM] | cell cycle arrest [4] | cell cycle arrest [5] | HepG2 cell binding [6] | Hep3B cellular internalization [7]
Combi 4 G(3) (DNA GNGAANGCGNNGAANNANGYSSSNNCAGNCANCAC; gemcitabines, 2'-OMe, 2'-F, BzdU, 3' idT; Combi 4 G(3); (1)..(1) G is 2-O-Methoxy-DNA.; (2)..(2) n is BzdU.; (3)..(3) G is 2-O-Methoxy-DNA.; (4)..(4) A is 2-Fluorine-DNA.; (5)..(5) A is 2-Fluorine-DNA.; (6)..(6) n is BzdU.; (10)..(10) n is BzdU.; (11)..(11) n is BzdU.; (12)..(12) G is 2-Fluorine-DNA.; (13)..(13) A is 2-Fluorine-DNA.; (14)..(14) A is 2-Fluorine-DNA.; (15)..(15) n is BzdU.; (16)..(16) n is BzdU.; (17)..(17) A is 2-Fluorine-) | excellent cell binding ability | excellent cellular internalization | 100 | arrested hepatoma cells at the G1/S phase | no cell cycle arrest |  | 
Combi 5: SEQ ID NO: 14, chemically optimized 12-12 aptamer (G_{Me}nG_{Me}A_{F}A_{F}nGCGnnG_{F}A_{F}A_{Me}nnA_{Me}nWYC_{F}C_{F}C_{F}nnCAG_{Me}nCAnC_{F}A_{Me}C_{F}; 2'-F and 2'-OMe units, modified bases n, W, Y undefined, 3' idT, as printed in the source, key not given here) |  |  |  |  |  | most similar to that of 12-12 | highest
